Consider 7 compounds from patent US5093371A, “Naphthyl ketone inhibitors of cholesterol esterase and their use as hypolipidemic and hypocaloric agents” (University of Iowa Research Foundation, priority 1990, dated 1992).

SMILES strings stand for the structures.

This experiment addresses Cholesterol esterase (CEase). The experiment in a line: Inhibition of CEase-catalyzed hydrolysis of p-nitrophenylbutyrate (PNPB). It is filed as biochemical. The conditions noted are these: for Ki: 25.0±0.1 C, pH 7.3, 0.1 M sodium phosphate, 1 mM Triton X100, substrate PNPB, read-out: Ki (inhibition constants for difluoroketone inhibitors of cholesterol esterase). Here is the method: The CEase-catalyzed hydrolysis of the water-soluble substrate p-nitrophenylbutyrate (PNPB) is a reaction that is routinely used to characterize inhibitors. The reaction is followed at 25.0±0.1.C and pH 7.3 in 0.1 M sodium phosphate buffer that contains 0.1 N NaC1 , 1 mM Triton X100, and the appropriate concentrations of CEase and PNPB. Inhibitor characterization occurs in two stages: (a) the form of the inhibition is determined by fitting substrate timecourse data to the integrated form of the Michaelis-Menten equation by nonlinear-least squares methods: [formula] Reactions are run in the absence and presence of inhibitor. Lineweaver-Burk plots of the data are constructed, as shown in FIG. 1 for inhibition by iododifluoromethyl 2-naphthyl ketone. (b) The dissociation constant of the CEase-inhibitor complex, Ki, is determined by one of two methods. In the first (Method A), […] is calculated from a replot of the apparent Km values (determined by fitting timecourses to equation (1)) versus inhibitor concentration. The replot is described by equation 2: [formula] […] In the second approach (Method B), initial velocity (Vi) versus inhibitor concentration data are fit by nonlinear-least squares to equation 3: [formula] […] The apparent Ki is then used to calculate the actual Ki from equation 4:
Ki =Ki^app /(1+[S]/Km) (4)
In equation 4 [S] is the concentration of the substrate PNPB and Km, the Michaelis constant for CEase-catalyzed hydrolysis of PNPB, is 0.09 mM.

Regarding `O=C(c1ccc2ccccc2c1)C(F)(F)Cl` [Compound 1, Chlorodifluoromethyl 2-Naphthyl Ketone], the Ki (in general, a measure of affinity in units of concentration, obtained from inhibition or displacement) was determined as 2 µM.
For the compound `COc1ccc2cc(C(=O)C(F)(F)Cl)ccc2c1` [Compound 2, Chlorodifluoromethyl 2-(6-Methoxy)naphthyl Ketone], the Ki worked out at 6 µM.
Same read-out and setting: the value for `CCCCC(F)(F)C(=O)c1ccc2ccccc2c1` [Compound 4, 1,1-Difluoropentyl 2-Naphthyl Ketone] was 0.27 µM.
As to `CCCC(=O)Oc1ccc([N+](=O)[O-])cc1` [PNPB, p-nitrophenylbutyrate, reference compound], the Km – broadly, the substrate concentration at which the rate is half of its maximum – (Michaelis constant used in equation 4) turned out to be 90 µM.
Take `CCCCC(F)(F)C(=O)c1ccc2cc(OC)ccc2c1` [Compound 5, 1,1-Difluoropentyl 2-(6-Methoxy)naphthyl Ketone]: the Ki came out at 0.38 µM.
For `O=C(c1ccc2ccccc2c1)C(F)(F)I` [Compound 3, Iododifluoromethyl 2-Naphthyl Ketone], the Ki worked out at 0.8 µM.
Consider `CCCCCC(F)(F)C(=O)c1ccc2ccccc2c1` [Compound 6, 1,1-Difluorohexyl 2-Naphthyl Ketone], for which the Ki turned out to be 0.08 µM. Also, the “CEase inhibition (in words)” value (summary of Table I Ki values) is on record as “most potent inhibitor”.
